Test results as given in ChEMBL document CHEMBL1862790, “Optimisation of fenarimol series for the treatment of Chagas disease”.

What was measured:
Trypanosoma cruzi [1] = test: microbe, parasite or virus in culture; type: functional, organism-based, Tulahuen LacZ, Clone C4
Trypanosoma cruzi [2] = test: microbe, parasite or virus in culture; type: functional, Tulahuen LacZ, Clone C4
[3] = DNDI: Cytotoxicity against L-6 rat myoblasts from skeletal muscle cells; conditions: L6 rat skeletal muscle myoblast cells
[4] = Trypanosoma cruzi, Tulahuen LacZ, Clone C4

Structure (SMILES)	IC50 (Trypanosoma cruzi [1]; [4]) [nM]	IC90 (Trypanosoma cruzi [2]; [4]) [nM]	IC50 ([3]; IC50) [nM]	IC50 (Trypanosoma cruzi [1]) [nM]	IC90 (Trypanosoma cruzi [2]) [nM]	IC50 [3] [nM]
CC(C)c1ccc(S(=O)(=O)NC2CCN(C(c3cnccn3)c3ccc(F)cc3F)CC2)cc1 (stereo unspecified)	850	> 1000	25500			
CC(C)OCCCNC(=O)c1cccc(C(O)(c2ccc(Cl)cc2)c2cccnc2)c1 (stereo unspecified)	97.5	232	74800			
O=S(=O)(C1CCCCC1)N1CCC(NC(c2cnccn2)c2ccc(F)cc2F)CC1 (stereo unspecified)	420	920	> 100000			
Cn1cc(C(NC2CCN(c3ccc(C(F)(F)F)cc3)CC2)c2cccnc2)cn1 (stereo unspecified)	102	249	> 100000			
CSc1ncc(C(O)(c2ccc(Cl)cc2)c2cccnc2)cn1 (stereo unspecified)	288	600	> 100000			
Cn1cc(CN2CCC(NC(c3ccc(Cl)cc3)c3cccnc3)CC2)c(C(F)(F)F)n1 (stereo unspecified)	52	85	51300			
CCn1cc(C(NC2CCN(c3ccc(OC(F)(F)F)cc3)CC2)c2cccnc2)cn1 (stereo unspecified)	103	298	73900			
CC(C)CNC(c1ccc(Cl)cc1)c1cccnc1 (stereo unspecified)	200	430	> 100000			
CC(C)(C)OC(=O)N1CCN(C(c2ccc(Cl)cc2)c2cccnc2)CC1 (stereo unspecified)	27	68	47800			
Clc1ccc(C(NCC2CCCCC2)c2cccnc2)cc1 (stereo unspecified)	32	80	59700			
CS(=O)(=O)N1CCC(NC(c2cnccn2)c2ccc(F)cc2F)CC1 (stereo unspecified)	680	> 1000	> 100000			
OC(c1ccc(Cl)cc1)(c1cccnc1)c1ccccc1F (stereo unspecified)	54	152		34.8	179	> 100000
Fc1cc(Cl)ccc1C(NC1CCN(c2nccs2)CC1)c1cccnc1 (stereo unspecified)	9	65.5	56200			
CC(C)CNC(c1ccc(C(F)(F)F)cc1)c1cnccn1 (stereo unspecified)	800	2100	> 100000			
Cc1ncsc1C(=O)N1CCN(C(c2ccc(C#N)cc2)c2cccnc2)CC1 (stereo unspecified)	513	> 1000	> 100000			
Cc1ccc(C(O)(c2ccc(Cl)cc2)c2cccnc2)s1 (stereo unspecified)	24	67	> 100000			
CC(C)(C)OC(=O)N1CCC(NC(c2cnccn2)c2ccc(F)cc2F)CC1 (stereo unspecified)	210	710	> 100000			
N#Cc1ccc(C(O)(c2ccc(Cl)cc2)c2cccnc2)c(F)c1 (stereo unspecified)	26	110	> 100000			
N#Cc1ccc(C(c2cccnc2)N2CCC(NC(=O)c3c(F)cccc3F)CC2)cc1 (stereo unspecified)	21.5	48	> 100000	18.5	55.5	
CC(C)(C)OC(=O)N1CC(NC(c2ccc(C(F)(F)F)cc2)c2cccnc2)C1 (stereo unspecified)	95	702	62500			
O=C(c1ccc(F)cc1)c1ccc(Cl)cc1	> 10000	10000	> 100000			
FC(F)(F)c1ccc(C(c2cccnc2)N2CCC(Oc3ccccc3)CC2)cc1 (stereo unspecified)	26.5	> 100	54400			
CC(C)S(=O)(=O)N1CCC(NC(c2cnccn2)c2ccc(F)cc2F)CC1 (stereo unspecified)	340	790	> 100000			
O=C(NC(c1ccc(C(F)(F)F)cc1)c1cnccn1)C1CCCCC1 (stereo unspecified)	1570	4790	> 100000			
O=C(c1ccccc1)N1CCC(CN(c2ccc(C(F)(F)F)cc2)c2cccnc2)CC1	43	86	51400			
O=S(=O)(Cc1ccccc1)NC1CCN(C(c2ccc(C(F)(F)F)cc2)c2cnccn2)CC1 (stereo unspecified)	310	780	54900			
O=C(NC1CCN(C(c2cnccn2)c2ccc(F)cc2F)CC1)C1CC1 (stereo unspecified)	> 1000	> 1000	> 100000			

Structure (SMILES)	IC50 (Trypanosoma cruzi [1]; [4]) [nM]	IC90 (Trypanosoma cruzi [2]; [4]) [nM]	IC50 ([3]; IC50) [nM]	IC50 (Trypanosoma cruzi [1]) [nM]	IC90 (Trypanosoma cruzi [2]) [nM]	IC50 [3] [nM]
O=C(Nc1ccccc1)N1CCN(C(c2ccc(Cl)cc2)c2cncnc2)CC1 (stereo unspecified)	120	310	83700			
O=C(NC1CCCC1)NC1CCN(C(c2ccc(Cl)cc2)c2cccnc2)CC1 (stereo unspecified)	60	220	62600			
O=S(=O)(C1CCCCC1)N1CCC(NC(c2ccc(C(F)(F)F)cc2)c2cnccn2)CC1 (stereo unspecified)	570	970	62600			
O=C(N1CCCCC1)N1CCN(C(c2ccc(Cl)cc2)c2cncnc2)CC1 (stereo unspecified)	220	610	> 100000			
Cc1cc(C(=O)NC2CCN(C(c3cncnc3)c3ccc(Cl)cc3F)CC2)no1 (stereo unspecified)	76	377	> 100000			
CC(C)C(=O)N1CCC(NC(c2cnccn2)c2ccc(F)cc2F)CC1 (stereo unspecified)	850	> 1000	> 100000			
Cc1cnc(C(O)(c2ccc(Cl)cc2)c2cncnc2)cn1 (stereo unspecified)	2110	5910	> 100000			
N#Cc1ccc(C(c2cccnc2)N2CCC(NC(=O)c3cccc(F)c3F)CC2)cc1 (stereo unspecified)	17	55.5	> 100000			
CC(C)CC(=O)NC1CCN(C(c2cnccn2)c2ccc(F)cc2F)CC1 (stereo unspecified)	> 1000	> 1000	> 100000			
FC(F)(F)c1ccc(C(NCC2CCCCC2)c2cnccn2)cc1 (stereo unspecified)	390	740	59200			
CC(C)c1ccc(S(=O)(=O)N2CCN(C(c3cncnc3)c3ccc(Cl)cc3F)CC2)cc1 (stereo unspecified)	18	36	> 100000			
CS(=O)(=O)Nc1ccc(C(O)(c2ccc(Cl)cc2)c2cccnc2)cc1 (stereo unspecified)	30	240	> 100000			
Fc1cc(Cl)ccc1C(NC1CCN(c2ccccc2C(F)(F)F)CC1)c1cccnc1 (stereo unspecified)	17	64.5	57000			
O=C(C1CC1)N1CCC(NC(c2ccc(C(F)(F)F)cc2)c2cccnc2)CC1 (stereo unspecified)	150	550	> 100000			
CC(C)S(=O)(=O)N1CCN(C(c2ccc(Cl)cc2)c2cccnc2)CC1 (stereo unspecified)	28	88	> 100000			
CC(C)Oc1ccc(C(NC(=O)c2ccc(Cl)cc2)c2cccnc2)cc1 (stereo unspecified)	150	330	84900			
CCN(CC)C(=O)N1CCC(NC(c2ccc(OC(C)C)cc2)c2cccnc2)CC1 (stereo unspecified)	7	36	> 100000			
O=S(=O)(NC(c1ccc(C(F)(F)F)cc1)c1cnccn1)C1CCCCC1 (stereo unspecified)	> 1000	> 1000	85000			
O=C(NC1CCN(C(c2ccc(C(F)(F)F)cc2)c2cnccn2)CC1)c1ccc(Cl)cc1 (stereo unspecified)	78	230	52900			
COc1ccccc1C(O)(c1ccc(Cl)cc1)c1cncnc1 (stereo unspecified)	1140	8700	> 100000			
CC(C)C(CO)N1CCC(NC(c2ccc(Cl)cc2)c2cccnc2)CC1 (stereo unspecified)	62	> 100	> 100000			
Cc1cc(C(=O)NC2CCN(C(c3ccc(C#N)cc3)c3cccnc3)CC2)[nH]n1 (stereo unspecified)	236	670	> 100000			
Clc1ccc(C(c2cncnc2)c2ccccc2Cl)cc1 (stereo unspecified)	1070	80000	> 100000			
CSc1ccc(N2CCC(NC(c3ccc(Cl)cc3)c3cccnc3)CC2)cc1 (stereo unspecified)	7	19	30200			
O=C(NC1CCN(C(c2cnccn2)c2ccc(F)cc2F)CC1)C1CCCCC1 (stereo unspecified)	800	> 1000	> 100000			
CC(C)(C)OC(=O)NC1CCN(C(c2cncnc2)c2ccc(Cl)cc2F)CC1 (stereo unspecified)	59	190	> 100000			
N#Cc1ccccc1N1CCC(NC(c2ccc(C(F)(F)F)cc2)c2cccnc2)CC1 (stereo unspecified)	7	20.5	52300			
